Earlier results on three compounds are cited in patent US20230210112A1, “METHOD FOR GROWING PLANTS” (Taminco BV, priority 2020, published 2023).

The structures appear in SMILES notation.

The subject of one data set is pests. Particulars: in vivo.
A further data set has as its system cauliflower seedlings. Particulars: 20 mM BABA.
For another data set, the system named is Tomato plants. Particulars: treated tomato seedlings.

With `N[C@@H](CO)CC(=O)O` [(R)-beta-homoserine], in the data set on pests, the “Effect on plant growth or development (in words)” value is “without affecting plant growth or development” and the “Resistance-inducing activity (in words)” value is “strong resistance-inducing activity”.

With `CC(N)CC(=O)O` (stereo not drawn) [BABA, beta-aminobutyric acid], the “Reduction in growth of cauliflower seedlings” value in the data set with cauliflower seedlings was 14.7%. Besides, the “Concentration at which root growth repression was observed (as low as)” value with Tomato plants is 500 µM.

In the case of `CC/C=C\C[C@H]1C(=O)CC[C@@H]1CC(=O)O` [JA, jasmonic acid], the “Concentration at which root growth repression was observed (as low as)” value with Tomato plants was 250 µM.
